Data taken from patent US20230270114A1, “FUNGICIDAL COMPOSITIONS” (SYNGENTA CROP PROTECTION AG, priority 2020, published 2023).

Key:
[1] = test system: Puccinia recondita f. sp. tritici; type: in vivo; settings: foliar, wheat leaf disc preventative, inoculated 1 day after application, compared to untreated control
[2] = test system: Magnaporthe grisea (Pyricularia oryzae); assay: whole plant or invertebrate; type: in vivo; settings: foliar, read-out: control of Magnaporthe grisea
[3] = test system: Glomerella lagenarium (Colletotrichum lagenarium); assay: Example A3: Glomerella lagenarium (Colletotrichum lagenarium) / liquid culture (anthracnose); type: cell-based; settings: Colletotrichum orbiculare; read-out: control of Glomerella lagenarium
[4] = test system: Monographella nivalis (Microdochium nivale); assay: Example A6: Monographella nivalis (Microdochium nivale) / liquid culture (foot rot cereals); type: cell-based; settings: read-out: control of Monographella nivalis
[5] = test system: Mycosphaerella graminicola (Septoria tritici); assay: Example A14: Mycosphaerella graminicola (Septoria tritici) / liquid culture (Septoria blotch); type: cell-based; settings: Zymoseptoria tritici; read-out: control of Mycosphaerella graminicola
Pyrenophora teres = assay: Example A12: Pyrenophora teres / barley / leaf disc preventative (net blotch); type: in vivo; settings: foliar, inoculated 2 days after application, compared to untreated control

SMILES | pest or weed control at 200 ppm [1] [%] | pest or weed control at 200 ppm [2] [%] | inhibition of growth at 20 ppm [3] [%] | inhibition of growth at 20 ppm [4] [%] | inhibition of growth at 20 ppm [5] [%] | pest or weed control at 200 ppm (Pyrenophora teres) [%]
CCOC(=O)OC(C)C(=O)N(c1cc(F)nc(F)c1)c1nc(C(=O)NC2CCC2)c(C)s1 (stereo not drawn) [X.02, [2-[[4-(cyclobutylcarbamoyl)-5-methyl-thiazol-2-yl]-(2,6-difluoro-4-pyridyl)amino]-1-methyl-2-oxo-ethyl] ethyl carbonate] | ≥ 80 | ≥ 80 |  |  |  | 
Cc1sc(N(C(=O)C(C)O)c2cc(F)nc(F)c2)nc1C(=O)NC1CCC12CCCC2 (stereo not drawn) [X.05, 2-[(2,6-difluoro-4-pyridyl)-(2-hydroxypropanoyl)amino]-5-methyl-N-spiro[3.4]octan-3-yl-thiazole-4-carboxamide] | ≥ 80 | ≥ 80 | ≥ 80 | ≥ 80 | ≥ 80 | 
COc1sc(N(C(C)=O)c2cc(F)nc(F)c2)nc1C(=O)NC1CCC12CCCC2 (stereo not drawn) [X.10, 2-[acetyl-(2,6-difluoro-4-pyridyl)amino]-5-methoxy-N-spiro[3.4]octan-3-yl-thiazole-4-carboxamide] |  | ≥ 80 |  |  |  | ≥ 80
COCC(=O)N(c1cc(F)nc(F)c1)c1nc(C(=O)NC2CCC2)c(C)s1 [X.12, N-cyclobutyl-2-[(2,6-difluoro-4-pyridyl)-(2-methoxyacetyl)amino]-5-methyl-thiazole-4-carboxamide] | ≥ 80 | ≥ 80 |  | ≥ 80 |  | ≥ 80
CC(=O)N(c1cc(F)nc(F)c1)c1nc(C(=O)NC2CCC2)c(C)s1 [X.13, 2-[acetyl-(2,6-difluoro-4-pyridyl)amino]-N-cyclobutyl-5-methyl-thiazole-4-carboxamide] | ≥ 80 | ≥ 80 |  |  |  | 
CCN(CC)C(=O)N(c1cc(F)nc(F)c1)c1nc(C(=O)NC2CCC2(C)C)c(C)s1 (stereo not drawn) [X.16, 2-[diethylcarbamoyl-(2,6-difluoro-4-pyridyl)amino]-N-(2,2-dimethylcyclobutyl)-5-methyl-thiazole-4-carboxamide] |  | ≥ 80 | ≥ 80 | ≥ 80 |  | 
Cc1sc(N(C(=O)c2ccco2)c2cc(F)nc(F)c2)nc1C(=O)NC1CCC1(C)C (stereo not drawn) [X.19, 2-[(2,6-difluoro-4-pyridyl)-(furan-2-carbonyl)amino]-N-(2,2-dimethylcyclobutyl)-5-methyl-thiazole-4-carboxamide] | ≥ 80 | ≥ 80 |  |  |  | 
Cc1sc(N(C(=O)Oc2ccccc2)c2cc(F)nc(F)c2)nc1C(=O)NC1CCC1(C)C (stereo not drawn) [X.26, phenyl N-(2,6-difluoro-4-pyridyl)-N-[4-[(2,2-dimethylcyclobutyl)carbamoyl]-5-methyl-thiazol-2-yl]carbamate] |  | ≥ 80 |  | ≥ 80 |  | 
Cc1sc(N(C(=O)c2cccs2)c2cc(F)nc(F)c2)nc1C(=O)NC1CCC1(C)C (stereo not drawn) [X.31, 2-[(2,6-difluoro-4-pyridyl)-(thiophene-2-carbonyl)amino]-N-(2,2-dimethylcyclobutyl)-5-methyl-thiazole-4-carboxamide] |  | ≥ 80 |  | ≥ 80 |  | 
COC(=O)N(c1cc(F)nc(F)c1)c1nc(C(=O)NC2CCC2(C)C)c(C)s1 (stereo not drawn) [X.32, methyl N-(2,6-difluoro-4-pyridyl)-N-[4-[(2,2-dimethylcyclobutyl)carbamoyl]-5-methyl-thiazol-2-yl]carbamate] |  | ≥ 80 |  |  |  | 
CC(=O)N(c1cc(F)nc(F)c1)c1nc(C(=O)NC2CCC23CCCC3)c(C)s1 (stereo not drawn) [X.37, 2-[acetyl-(2,6-difluoro-4-pyridyl)amino]-5-methyl-N-spiro[3.4] octan-3-yl-thiazole-4-carboxamide] |  | ≥ 80 |  |  |  | ≥ 80
